{"source": "paper PMC4467461", "about": "“Small-molecule activation of SERCA2a SUMOylation for the treatment of heart failure” (Nature Communications, 2015)", "target": "T1, SUMO E1 SAE1 Q312A mutant (Homo sapiens, UniProt Q9UBE0+Q9UBT2, Q312A)", "T1 construct": "GST (N); made in house; host or cells: Escherichia coli BL21", "T1 sequence (Q9UBE0 1-346 Q312A)": "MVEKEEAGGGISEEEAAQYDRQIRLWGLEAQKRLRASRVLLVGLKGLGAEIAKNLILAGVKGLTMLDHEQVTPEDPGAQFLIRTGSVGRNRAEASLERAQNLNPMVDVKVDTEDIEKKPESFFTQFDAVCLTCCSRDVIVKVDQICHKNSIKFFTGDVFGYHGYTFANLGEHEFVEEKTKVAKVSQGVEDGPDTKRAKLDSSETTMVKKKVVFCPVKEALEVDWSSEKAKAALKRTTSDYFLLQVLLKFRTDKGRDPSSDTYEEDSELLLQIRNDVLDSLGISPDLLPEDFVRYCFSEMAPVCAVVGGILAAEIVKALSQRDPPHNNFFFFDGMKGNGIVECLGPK", "T1 sequence (Q9UBT2 1-640)": "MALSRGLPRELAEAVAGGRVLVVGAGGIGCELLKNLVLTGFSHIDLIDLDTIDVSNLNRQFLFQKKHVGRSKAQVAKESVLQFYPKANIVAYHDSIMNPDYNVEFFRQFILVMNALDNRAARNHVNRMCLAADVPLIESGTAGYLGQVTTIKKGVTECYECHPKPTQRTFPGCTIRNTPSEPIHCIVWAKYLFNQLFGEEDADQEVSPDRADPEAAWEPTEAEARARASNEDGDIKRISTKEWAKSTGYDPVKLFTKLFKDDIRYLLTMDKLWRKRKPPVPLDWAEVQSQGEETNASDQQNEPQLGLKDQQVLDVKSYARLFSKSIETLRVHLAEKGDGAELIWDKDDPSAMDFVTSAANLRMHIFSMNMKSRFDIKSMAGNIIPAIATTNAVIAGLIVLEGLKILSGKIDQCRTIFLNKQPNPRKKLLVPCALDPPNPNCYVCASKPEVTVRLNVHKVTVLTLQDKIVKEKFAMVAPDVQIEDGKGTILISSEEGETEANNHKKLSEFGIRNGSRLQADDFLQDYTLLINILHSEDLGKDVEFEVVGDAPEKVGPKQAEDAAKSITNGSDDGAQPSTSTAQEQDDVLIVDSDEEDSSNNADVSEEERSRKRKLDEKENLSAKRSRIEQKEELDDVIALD", "assay": "SUMO E1 activity assays with SAE1 Q312A mutant", "type": "biochemical", "description": "Figure 3 SUMO-specific activating enzyme, E1, is a direct target of N106. Mechanism of action of N106 on individual steps in the SUMOylation cascade in vitro. (a) Inorganic pyrophosphate resulting from ATP hydrolysis in E1-catalysed SUMO-1 activation in the presence of increasing concentration of N106 compound was assessed by fluorogenic pyrophosphate assay kit. Recombinant human SUMO-specific E1 (0.05 μM), human Ubc9 (0.25 μM), human SUMO-1 (12.5 μM) and ATP (1 mM) were incubated with increasing concentration of N106 for 30 min at 37 °C and quantified using a fluorescence microplate reader. (b) The SAE2-SUMO-1 conjugation was detected followed by western blotting with anti-SAE2 antibodies. SUMO E1 (0.05 μM), SUMO-1 (12.5 μM) and ATP (1 mM) were co-incubated with increasing concentration of N106 for 30 min at 37 °C. The reaction mixtures were separated on 7.5% SDS–PAGE gel under non-reducing conditions. (c) E2-SUMO-1 conjugation was visualized by western blotting with anti-Ubc9 antibody. SUMO E1 (0.05 μM), Ubc9 (0.25 μM), SUMO-1 (12.5 μM) and ATP (1 mM) were incubated without or with increasing concentration of N106 for 30 min at 37 °C. […] (e) ATP hydrolytic activity of WT and mutant SUMO E1 are determined. (f) The E1-SUMO-1 conjugation was detected followed by western blot analysis with anti-SAE2 antibody. *The SAE2-SUMO-1 conjugated bands. […]"}
{"smiles": "COc1ccc(-c2nnc(Nc3nc4c(OC)cccc4s3)o2)cc1", "note": "[Compound N106, N-(4-methoxybenzo[d]thiazol-2-yl)-5-(4-methoxyphenyl)-1,3,4-oxadiazol-2-amine]", "values": [{"measurement": "ATP hydrolysis activity with N106, compared with wild-type protein", "setting": "Q312A mutant", "result": "significantly lower"}, {"measurement": "SUMO E1-SUMO and SUMO E2-SUMO conjugations in the presence of N106, compared with WT", "setting": "Q312A mutant SAE1", "result": "weaker"}]}
